Test results taken from PMC6522510 (Nature Communications, 2019).
Like-named read-outs stand apart in the source and are kept apart here.

How the values were obtained:
CHRF288-11 [1] = test: Secondary dose-response HTS, Cell Titer Glo; assay type: cell-based, human; details: Homo sapiens, HTS; secondary high-throughput screen; CHRF288-11; read-out: average effective concentration, CHRF288-11
CMS [2] = test: Secondary dose-response HTS, Cell Titer Glo; assay type: cell-based, human; details: Homo sapiens, HTS, read-out: average effective concentration, CMS
M07e [3] = test: Secondary dose-response HTS, Cell Titer Glo; assay type: cell-based, human; details: Homo sapiens, M-07e, secondary high-throughput screen, read-out: average effective concentration, M07e
ML2 = test: Secondary dose-response HTS, Cell Titer Glo; assay type: cell-based, human; details: Homo sapiens; secondary high-throughput screen; ML-2; read-out: average effective concentration, ML-2
U937 [4] = test: Secondary dose-response HTS, Cell Titer Glo; assay type: cell-based, human; details: Homo sapiens, U-937; secondary high-throughput screen; U937; read-out: average effective concentration, U937
MOLM-13 [5] = test: cells; design: species or system AML cell lines (8); Secondary HTS, 10-point dose-response in triplicate, Cell Titer Glo viability, four-parameter fit EC50; details: Homo sapiens, MOLM-13, 72 h, read-out: MOLM-13
MV4-11 [6] = test: cells; design: species or system AML cell lines (8); Secondary HTS, 10-point dose-response in triplicate, Cell Titer Glo viability, four-parameter fit EC50; details: Homo sapiens, MV4-11, 72 h, read-out: MV4-11
CMK [7] = test: cells; design: species or system AML cell lines (8); Secondary HTS, 10-point dose-response in triplicate, Cell Titer Glo viability, four-parameter fit EC50; details: Homo sapiens, CMK, 72 h, read-out: CMK
MOLM-13 [8] = test: Secondary dose-response HTS, Cell Titer Glo; assay type: cell-based, human; details: Homo sapiens; secondary high-throughput screen; MOLM-13; read-out: average effective concentration, MOLM-13
MV4-11 [9] = test: Secondary dose-response HTS, Cell Titer Glo; assay type: cell-based, human; details: Homo sapiens; secondary high-throughput screen; MV4-11; read-out: average effective concentration, MV4-11
CMK [10] = test: Secondary dose-response HTS, Cell Titer Glo; assay type: cell-based, human; details: Homo sapiens, CMK, read-out: average effective concentration, CMK
CHRF288-11 [11] = test: cells; design: species or system AML cell lines (8); Secondary HTS, 10-point dose-response in triplicate, Cell Titer Glo viability, four-parameter fit EC50; details: 72 h, read-out: CHRF288-11
U937 [12] = test: cells; design: species or system AML cell lines (8); Secondary HTS, 10-point dose-response in triplicate, Cell Titer Glo viability, four-parameter fit EC50; details: Homo sapiens, U-937, 72 h, read-out: U937
CHRF288-11 [13] = test system: CHRF288-11; design: species or system AML cell lines (8); Primary HTS, single concentration about 10 uM, Cell Titer Glo viability; log10 luminescence, per cent inhibition relative to cycloheximide control; details: 72 h, relative to cycloheximide control, log10 luminescence; inhibitor
CMK [14] = test system: CMK; design: species or system AML cell lines (8); Primary HTS, single concentration about 10 uM, Cell Titer Glo viability; log10 luminescence, per cent inhibition relative to cycloheximide control; details: 72 h, relative to cycloheximide control, log10 luminescence; inhibitor
CMS [15] = test system: CMS; design: species or system AML cell lines (8); Primary HTS, single concentration about 10 uM, Cell Titer Glo viability; log10 luminescence, per cent inhibition relative to cycloheximide control; details: 72 h, relative to cycloheximide control, log10 luminescence; inhibitor
M07e [16] = test system: M07e; design: species or system AML cell lines (8); Primary HTS, single concentration about 10 uM, Cell Titer Glo viability; log10 luminescence, per cent inhibition relative to cycloheximide control; details: 72 h, relative to cycloheximide control, log10 luminescence; inhibitor
ML-2 = test system: ML-2; design: species or system AML cell lines (8); Primary HTS, single concentration about 10 uM, Cell Titer Glo viability; log10 luminescence, per cent inhibition relative to cycloheximide control; details: 72 h, relative to cycloheximide control, log10 luminescence; inhibitor
MOLM-13 [17] = test system: MOLM-13; design: species or system AML cell lines (8); Primary HTS, single concentration about 10 uM, Cell Titer Glo viability; log10 luminescence, per cent inhibition relative to cycloheximide control; details: 72 h, relative to cycloheximide control, log10 luminescence; inhibitor
MV4-11 [18] = test system: MV4-11; design: species or system AML cell lines (8); Primary HTS, single concentration about 10 uM, Cell Titer Glo viability; log10 luminescence, per cent inhibition relative to cycloheximide control; details: 72 h, relative to cycloheximide control, log10 luminescence; inhibitor
U937 [19] = test system: U937; design: species or system AML cell lines (8); Primary HTS, single concentration about 10 uM, Cell Titer Glo viability; log10 luminescence, per cent inhibition relative to cycloheximide control; details: 72 h, relative to cycloheximide control, log10 luminescence; inhibitor
[20] = secondary high-throughput screen, CMS
[21] = secondary high-throughput screen

SMILES | EC50 (CHRF288-11 [1]) | EC50 (CMS [2]) | EC50 (M07e [3]; M07e) | EC50 (ML2) | EC50 (U937 [4]) | EC50 (MOLM-13 [5]) | EC50 (MV4-11 [6]) | EC50 (CMK [7]) | EC50 (CMS [2]; [20]) | EC50 (CMK [10]; [21]) | further results
C=C1CC[C@@H]2[C@](C)(CO)[C@H](O)CC[C@@]2(C)[C@@H]1C/C=C1/C(=O)OC[C@H]1O [ANDROGRAPHOLIDE] | 8500 nM | 5800 nM | 10000 nM | 3800 nM | 1700 nM | > 10000 nM | > 10000 nM | > 10000 nM | – | – | –
COc1cc([C@@H]2c3cc4c(cc3[C@@H](O[C@@H]3O[C@@H]5CO[C@@H](C)O[C@H]5[C@H](O)[C@H]3O)[C@H]3COC(=O)[C@H]23)OCO4)cc(OC)c1O [ETOPOSIDE] | 3600 nM | – | 1700 nM | 710 nM | 4300 nM | – | – | > 10000 nM | > 10000 nM | – | EC50 (MOLM-13 [8]): 2100 nM; EC50 (MV4-11 [9]): 670 nM
Nc1cc(F)ccc1NC(=O)c1ccc(CNC(=O)/C=C/c2cccnc2)cc1 [CHIDAMIDE] | – | 9900 nM | 1500 nM | 8700 nM | – | > 10000 nM | > 10000 nM | – | – | – | EC50 (CMK [10]): 250 nM; EC50 (CHRF288-11 [11]): > 10000 nM; EC50 (U937 [12]): > 10000 nM
COc1cc(C)c2c(Oc3cccc(C(F)(F)F)c3)c(OC)cc(NC(C)CCCN)c2n1 (stereo not drawn) [TAFENOQUINE] | > 10000 nM | > 10000 nM | > 10000 nM | > 10000 nM | > 10000 nM | > 10000 nM | > 10000 nM | > 10000 nM | – | – | CHRF288-11 %inh (CHRF288-11 [13]): 134.8%; CMK %inh (CMK [14]): 107.9%; CMS %inh (CMS [15]): 39.64%; M07e %inh (M07e [16]): 38.9%; ML-2 %inh (ML-2): 62.38%; MOLM-13 %inh (MOLM-13 [17]): 98.6%; MV4-11 %inh (MV4-11 [18]): 34.4%; U937 %inh (U937 [19]): 46.41%
Cc1cc(Nc2cc(CN3CCOCC3)c3nc(C)c(Cc4ccc(Cl)cc4F)n3n2)n[nH]1 [GANDOTINIB] | 69 nM | 360 nM | 3000 nM | 9300 nM | 940 nM | > 10000 nM | > 10000 nM | > 10000 nM | – | – | –
COC(=O)[C@]12CCC(C)(C)C[C@H]1[C@H]1C(=O)C=C3[C@@]4(C)C=C(C#N)C(=O)C(C)(C)[C@@H]4CC[C@@]3(C)[C@]1(C)CC2 [BARDOXOLONE METHYL] | 940 nM | – | 4000 nM | 880 nM | 1000 nM | > 10000 nM | > 10000 nM | – | 1100 nM | 1100 nM | –
CCN(CC)Cc1ccc2cc(COC(=O)Nc3ccc(C(=O)NO)cc3)ccc2c1 [GIVINOSTAT] | 61 nM | – | 31 nM | 70 nM | 55 nM | > 10000 nM | > 10000 nM | – | 86 nM | 3.7 nM | –
NS(=O)(=O)OC[C@@H]1C[C@@H](n2ccc3c(N[C@H]4CCc5ccccc54)ncnc32)C[C@@H]1O [MLN 4924] | 18 nM | 100 nM | 140 nM | 1 nM | 1 nM | > 10000 nM | > 10000 nM | – | – | – | EC50 (CMK [10]): 1 nM
COc1cccc2c1C(=O)c1c(O)c3c(c(O)c1C2=O)C[C@@](O)(C(=O)CO)C[C@@H]3O[C@H]1C[C@H](N)[C@H](O)[C@H](C)O1 [DOXORUBICIN] | 130 nM | – | 230 nM | 440 nM | 140 nM | – | – | > 10000 nM | 740 nM | – | EC50 (MOLM-13 [8]): 36 nM; EC50 (MV4-11 [9]): 51 nM; EC50 (CHRF288-11 [11]): 134 nM
CN1CCC(CNc2ccc3ncc(-c4cccc(OC(F)(F)F)c4)n3n2)CC1 [SGI-1776] | > 10000 nM | > 10000 nM | > 10000 nM | > 10000 nM | 10000 nM | – | – | > 10000 nM | – | – | EC50 (MOLM-13 [8]): 1600 nM; EC50 (MV4-11 [9]): 990 nM
O=C(Nc1c[nH]nc1-c1nc2ccc(CN3CCOCC3)cc2[nH]1)NC1CC1 [AT9283] | – | – | 90 nM | 6600 nM | 6100 nM | > 10000 nM | > 10000 nM | – | 190 nM | 190 nM | EC50 (CHRF288-11 [11]): > 10000 nM
C=C1C(=O)O[C@H]2[C@H]1CC/C(C)=C/CC[C@@]1(C)O[C@@H]21 [PARTHENOLIDE] | 1600 nM | 1200 nM | 10000 nM | 920 nM | 2100 nM | > 10000 nM | > 10000 nM | – | – | – | EC50 (CMK [10]): 2100 nM
O=C(/C=C/c1ccc(CN(CCO)CCc2c[nH]c3ccccc23)cc1)NO [DACINOSTAT] | 1 nM | – | 1 nM | 1 nM | 1 nM | > 10000 nM | > 10000 nM | – | 1 nM | 1 nM | CHRF288-11 %inh (CHRF288-11 [13]): 161.9%; CMK %inh (CMK [14]): 120.3%; CMS %inh (CMS [15]): 111%; M07e %inh (M07e [16]): 149.6%; ML-2 %inh (ML-2): 65.79%; MOLM-13 %inh (MOLM-13 [17]): 102.9%; MV4-11 %inh (MV4-11 [18]): 78.77%; U937 %inh (U937 [19]): 87.23%
Cc1ccc2nc(NCCN)c3ncc(C)n3c2c1 [BMS-345541] | 3800 nM | – | – | 2200 nM | 2300 nM | > 10000 nM | > 10000 nM | – | 5900 nM | 4700 nM | EC50 (M07e [3]; […]): 6100 nM
